The values that follow are results of earlier work, collected in patent publication US8309607B2, “Rapid release irbesartan-containing pharmaceutical composition” (ratiopharm GmbH, priority 2006, dated 2012).

For this series the following is noted: in vivo.

For `CCCCC1=NC2(CCCC2)C(=O)N1Cc1ccc(-c2ccccc2-c2nnn[nH]2)cc1` [Irbesartan, 2-n-butyl-4-spirocyclopentane-1-[(2′-(tetrazol-5-yl)biphenyl-4-yl)methyl]-2-imidazolin-5-one], the oral bioavailability result is reported as “acceptable oral bioavailability”.
